According to PMC11310889, “Ribosomal translation of fluorinated non-canonical amino acids for de novo biologically active fluorinated macrocyclic peptides” (Chemical Science, 2024):
*1 amine or outer side, *2 acyl side, *3 side chain or, on linkers, in order; H or OH if unused. Where a SMILES comes first, the peptide text is derived from it. Bridges are numbered along the chain shown (N, C = ends). [ ]: non-standard residue; d: D form. X1 = O=C(C[C@H](N[*:1])c1ccc(F)cc1)[*:2]; dPhe(4-F) = N[C@H](Cc1ccc(F)cc1)C(=O)O

Legend:
[1] = system: mouse red blood cells; assay type: cell-based
Method: a Biacore T200 instrument (GE Healthcare) at 25 °C. In this study, the running buffer was HBS-EP+ buffer (10 mM HEPES-KOH (pH 7.4), 150 mM NaCl, 50 μM EDTA, 0.05% Tween 20) containing 0.1% DMSO. The Series S Sensor Chip CM5 was used to fix BAM complex on the surface of Biacore CM5 chip with a density of 9500 RU. The binding mode was multi-cycle kinetics (one sample concentration one cycle). Finally, the binding sensorgrams was analyzed by Biacore evaluation software, and the standard 1:1 model was used for fitting.
(§1) Preliminary evaluation of the antibacterial activity of macrocyclic peptides against E. coli […]
Remove the previously preserved E. coli W3110 cells from the -80 °C refrigerator, scrape a little, inoculate it into 1 mL LB liquid medium, and culture overnight in 37°C shaker. The strain was inoculated into fresh LB liquid medium according to the inoculation ratio of 1:100 and incubated at 37℃ until the OD600 reached about 0.47~0.53. […]
Finally, the plate was scanned and counted. […]
the samples were centrifuged at 1000 rpm for 10 min，and take pictures of the pellet after centrifugation. […] The absorbance of the supernatant at the wavelength of 545 nm was measured by microplate reader, and the percentage of hemolysis of each […]

[2] = system: T1, BAM complex; test: SPR binding kinetics to BAM complex; set-up: species or system E. coli; conditions: Biacore T200, 25 °C, multi-cycle kinetics, 1:1 model; for ka for BAM complex: CM5 chip; for Kd: HBS-EP+ buffer pH 7.4 with 0.1% DMSO, BAM complex on CM5 chip (9500 RU)
T1 construct: made in house; host or cells: E. coli BL21(DE3), strain obtained from Xinmiao Fu, Fujian Normal University
T1 sequence (P0A903 25-344): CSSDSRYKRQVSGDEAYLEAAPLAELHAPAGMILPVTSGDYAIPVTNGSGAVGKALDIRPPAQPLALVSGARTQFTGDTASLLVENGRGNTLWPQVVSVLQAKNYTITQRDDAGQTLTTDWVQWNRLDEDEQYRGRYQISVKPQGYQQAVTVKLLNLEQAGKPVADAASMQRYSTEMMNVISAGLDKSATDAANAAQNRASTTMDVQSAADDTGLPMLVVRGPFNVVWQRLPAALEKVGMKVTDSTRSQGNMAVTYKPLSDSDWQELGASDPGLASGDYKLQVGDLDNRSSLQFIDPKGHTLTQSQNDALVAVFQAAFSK
T1 sequence (P0AC02 20-245, further chain): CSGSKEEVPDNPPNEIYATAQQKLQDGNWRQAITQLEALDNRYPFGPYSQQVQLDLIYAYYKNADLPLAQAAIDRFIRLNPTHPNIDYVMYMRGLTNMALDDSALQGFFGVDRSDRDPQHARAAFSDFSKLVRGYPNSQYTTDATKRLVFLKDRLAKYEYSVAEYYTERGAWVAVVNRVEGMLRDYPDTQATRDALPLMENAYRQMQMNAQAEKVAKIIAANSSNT
T1 sequence (P0A937 20-113, further chain): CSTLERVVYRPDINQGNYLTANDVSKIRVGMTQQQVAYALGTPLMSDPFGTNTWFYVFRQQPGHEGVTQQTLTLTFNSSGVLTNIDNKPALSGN
T1 sequence (P77774 20-392, further chain): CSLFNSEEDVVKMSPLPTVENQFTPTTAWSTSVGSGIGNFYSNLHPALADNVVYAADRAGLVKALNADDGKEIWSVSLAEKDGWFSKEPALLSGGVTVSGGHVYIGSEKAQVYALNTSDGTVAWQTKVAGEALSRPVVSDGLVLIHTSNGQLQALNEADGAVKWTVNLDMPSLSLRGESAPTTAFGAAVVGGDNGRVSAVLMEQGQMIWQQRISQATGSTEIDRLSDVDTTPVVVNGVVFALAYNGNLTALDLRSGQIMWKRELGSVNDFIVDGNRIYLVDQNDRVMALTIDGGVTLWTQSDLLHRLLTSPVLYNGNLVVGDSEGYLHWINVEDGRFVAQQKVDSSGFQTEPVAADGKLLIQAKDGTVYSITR
Method: Expression and purification of the BAM complex
The E. coli BL21(DE3) cells containing all five Bam proteins (BamA, B, C, D, and E) was obtained from Xinmiao Fu of Fujian Normal University and used for expression and purification.
The BL21(DE3) cells plated onto LB-ampicillin agar plates and incubated overnight at 37 °C. A 20 mL culture incubated overnight at 37°C was prepared from a single colony in LB medium supplemented with 100 mg/L of ampicillin. The strain was inoculated into fresh LB liquid medium according to the inoculation ratio of 1:100 and incubated at 37 ℃ for about 4 hours until the OD600 reached about 1.0. The temperature of the incubator was set to 20 ℃ and then cultured for 1 hour, and 200 uM IPTG was added to induce overnight. First of all, the induced cells were collected by freezing centrifuge 3000 rpm for 30 min, and the collected cells were resuspended with Buffer 1 (20 mM Tris-HCl, pH 8.0, 150 mM NaCl), and then crushed low temperature and pressure with a high pressure crusher. The broken cells were centrifuged 1 hour at 4 °C for18000 rpm by high speed centrifuge. After centrifugation at 4 °C 18000 rpm for 1 hour, and the supernatant was discarded and the cell membrane was collected. The collected cell membranes were resuscitated with Buffer 2 (20 mM Tris-HCl, pH 8.0, 300 mM NaCl, 1% DDM) and then dissolved at 4 °C for 2 hours. After dissolving the membrane, the supernatant was collected by high speed centrifuge at 18,000 rpm. The 20 mM imidazole was added to the supernatant and incubated with a 2 mL Ni-NTA sefinoseTM resin column for 1 hour. After incubation, 10 column volumes were washed with Buffer 3 (20 mM Tris-HCl, pH 8.0, 300 mM NaCl, 0.025%DDM) containing 30 mM and 50 mM imidazole respectively. Then, the protein was eluted with Buffer 3 containing 200 mM imidazole, and the eluted protein was collected. Finally, using the 20-fold molar excess of EZ-LinkTM Sulfo-NHS-LC-LC-Biotin for BAM complex, and incubate reaction on ice for 2 hours. After the protein labeling is completed, dialysis is used to purify the labeled protein to remove the remaining unreacted and hydrolyzed biotin reagents. […]
The mobile phase was 0.1% TFA aqueous solution / acetonitrile containing 0.1%
TFA. The purified macrocyclic peptides and fluorinated macrocyclic peptides were confirmed by electrospray ionization mass spectrometry (ESI-MS).
Binding kinetics analysis by SPR
The binding kinetics between the selected peptides and EphA2 were tested by SPR using a Biacore T200 instrument (GE Healthcare) at 25 °C. In this study, the running buffer was HBS-EP+ buffer (10 mM HEPES-KOH (pH 7.4), 150 mM NaCl, 50 μM EDTA, 0.05% Tween 20) containing 0.1% DMSO. Biotin capture kit (GE Healthcare) was used to fix human EphA2 on the surface of Biacore CAP chip with a density of 1050 RU. Five different concentrations of peptides were injected at the flow rate of 30 μL/min, and their kinetic constants were determined. The binding kinetic was quantified by single cycle kinetic method. Finally, the binding sensorgrams was analyzed by Biacore evaluation software, and the standard 1:1 model was used for fitting.
The binding kinetics between the selected peptides and BAM complex were tested by SPR using […]
a Biacore T200 instrument (GE Healthcare) at 25 °C. In this study, the running buffer was HBS-EP+ […]
0.1% DMSO. The Series S Sensor Chip CM5 was used to fix BAM complex on the surface of Biacore CM5 chip with a density of 9500 RU. The binding mode was multi-cycle kinetics (one sample concentration one cycle). Finally, the binding sensorgrams was analyzed by Biacore evaluation software, and the standard 1:1 model was used for fitting.
as §1
Remove the previously preserved E. coli W3110 cells from the -80 °C refrigerator, scrape a little, inoculate it into 1 mL LB liquid medium, and culture overnight in 37°C shaker. The strain was […]

Row | Compound | hemolytic toxicity towards mouse red blood cells [1] | ka for BAM complex [2] | Kd [2]
1 | CC[C@H](C)[C@@H]1NC(=O)[C@@H](Cc2ccc(F)cc2)NC(=O)CSC[C@@H](C(=O)NCC(N)=O)NC(=O)[C@H]([C@@H](C)O)NC(=O)[C@H](Cc2c[nH]cn2)NC(=O)[C@H](CC(C)C)NC(=O)[C@H](Cc2ccc(O)cc2)NC(=O)[C@H](CC(N)=O)NC(=O)[C@@H](Cc2ccc(F)cc2)NC(=O)[C@H]([C@@H](C)O)NC(=O)[C@H](CC(C)C)NC(=O)[C@H](CO)NC(=O)[C@H](CCCCN)NC(=O)[C@H](Cc2c[nH]cn2)NC(=O)[C@H](Cc2c[nH]c3ccccc23)NC1=O [BAM-f2] ({CH2CO}-[dPhe(4-F)]IWHKSLT[dPhe(4-F)]NYLHTCG-NH2; thioether N-15) | low to negligible hemolytic toxicity | 0.90 ×10 4 M-1s-1 | 755 nM
2 | CC[C@H](C)[C@@H]1NC(=O)[C@H](Cc2ccccc2)NC(=O)[C@H](Cc2c[nH]cn2)NC(=O)[C@H](CCCCN)NC(=O)[C@@H](Cc2ccc(F)cc2)NC(=O)CSC[C@@H](C(=O)NCC(N)=O)NC(=O)[C@H]([C@@H](C)CC)NC(=O)[C@@H]2CCCN2C(=O)[C@H](CO)NC(=O)[C@H](CCCNC(=N)N)NC(=O)[C@H](Cc2ccc(O)cc2)NC(=O)C[C@@H](c2ccc(F)cc2)NC(=O)[C@H](Cc2ccc(O)cc2)NC1=O [BAM-β3] ({CH2CO}-[dPhe(4-F)]KHFIY[X1]YRSPICG-NH2; thioether N-13) | low to negligible hemolytic toxicity | 2.54 ×10 4 M-1s-1 | 453 nM
